Experimental findings from patent US8686043B2, “Heterocyclic sulfonamides, uses and pharmaceutical compositions thereof” (Pfizer Inc., priority 2009, dated 2014) are described below.

pEC50: −log10 of the molar value.

This test has as its system AMPA receptors. Briefly: AMPA ES Cell FLIPR Screen (AMPA Potentiator Assay). It counts as cell-based, murine. The conditions noted are these: ES cell-derived neurons, FLIPR (Fluo-4), 32 μM AMPA challenge; values marked * are the geometric mean of 2-5 EC50 determinations. The text has this:
Growth and Maintenance of ES Cells
Murine ES cell line E14, with a targeted mutation in the Sox1 gene and a neuroectodermal marker that offers G418 resistance when the Sox1 gene is expressed (Stem Cell Sciences, West Mains Road, Edinburgh, Scotland EH9 3JQ) may be used in all experiments. ES cells may be maintained undifferentiated as previously described (Methods For The Isolation And Maintenance Of Murine Embryonic Stem Cells; Roach-M-L, McNeish-J-D., Methods in Molecular Biology, 185, 1-16 (2002)). Briefly, ES cells may be grown in stem cell culture media comprising a base medium of Knockout™ D-MEM (Invitrogen 5791 Van Allen Way, Carlsbad, Calif. USA 92008), supplemented with 15% ES qualified Fetal Bovine Serum (FBS) (Invitrogen), 0.2 mM L-Glutamine (Invitrogen), 0.1 mM MEM non-essential amino acids (Invitrogen), 30 μg/ml Gentamicin […] (Invitrogen), 1000 U/ml ESGRO™ (CHEMICON International, Inc., 28820 Single Oak Drive, Temecula, Calif. 92590) and 0.1 mM 2-mercaptoethanol (Sigma, 3050 Spruce St., St. Louis, Mo. 63103). ES cells may then be plated on gelatin-coated dishes (BD Biosciences, 2350 Qume Drive, San Jose, Calif. 95131), wherein the media is changed daily and the cells dissociated with 0.05% Trypsin EDTA (Invitrogen) every other day.
Neural In Vitro Differentiation of ES Cells
Embryoid Body Formation: Prior to embryoid body (EB) formation the ES cells may be weaned from FBS onto Knockout Serum Replacement™ (KSR) (Invitrogen). To form EBs, ES cells may be dissociated into a single cell suspension, then 3×10^6 cells plated in bacteriology dishes (Nunc 4014) and grown as a suspension culture in NeuroEB-I medium that consisted of Knockout™ D-MEM (Invitrogen), supplemented with 10% KSR (Invitrogen), 0.2 mM L-Glutamine (Invitrogen), 0.1 mM MEM non-essential amino acids (Invitrogen), 30 μg/ml Gentamicin (Invitrogen), 1000 U/ml ESGRO™ (CHEMICON International, Inc.), 0.1 mM 2-mercaptoethanol (Sigma) and 150 ng/ml Transferrin (Invitrogen). The plates may then be put on a Stovall Belly Button™ shaker in an atmospheric oxygen incubator. The media may be changed on day 2 of EB formation with NeuroEB-I and on day 4 with NeuroEB-II (NeuroEB-I plus 1 μg/ml mNoggin (R&D Systems, 614 McKinley Place N.E. Minneapolis, Minn. 55413)
Neuronal Precursor Selection and Expansion: On day 5 of EB formation, EBs may be dissociated with 0.05% Trypsin EDTA, and 4×10^6 cells/100 mm dish may then be plated on Laminin coated tissue culture dishes in NeuroEB-II-G418 medium that consisted of a base medium of a 1:1 mixture of D-MEM/F12 supplemented with N2 supplements and NeuroBasal Medium supplemented with B27(I ASSUME THIS IS THE VITAMIN) supplement and 0.1 mM L-Glutamine (all from Invitrogen). The base medium may then be supplemented with 10 ng/ml bFGF (Invitrogen), 1 μg/ml mNoggin, 500 ng/ml SHH-N (IS THIS SONIC HEDGEHOG FROM ProSpecBio Rehovot Science Park, P.O. BOX 398, Rehovot 76103, Israel), 100 ng/ml FGF-8b (R&D Systems), 1 μg/ml Laminin and 200 μg/ml G418 (Invitrogen) for selection of neuronal precursors expressing Sox-1. The plates may then be put in an incubator containing 2% oxygen and maintained in these conditions. During the 6-day selection period, the NeuroEB-II ([…]) media should be changed daily. On day 6, the surviving neuronal precursor foci may then be dissociated with 0.05% Trypsin EDTA and the cells plated at a density of 1.5×10^6 cells/100 mm Laminin coated dish in Neuroll ([…])-G418 medium. The cells may then be dissociated every other day for expansion, and prepared for cryopreservation at passage 3 or 4. The cryopreservation medium typically contains 50% KSR, 10% dimethyl sulfoxide (DMSO) (Sigma) and 40% Neurol([…])-G418 medium. Neuronal precursors may be cryopreserved at a concentration of 4×10^6 cells/ml and 1 ml/cryovial in a controlled rate freezer overnight then transferred to an ultra-low freezer or liquid nitrogen for long-term storage. […]

The term pEC50 denotes the EC50 on a negative log10 scale, so that one unit is a factor of ten. For the molecule `CC(=O)NC1CCN(c2ccc(O[C@@H]3COC[C@H]3NS(=O)(=O)C(C)C)cc2)C1` (mixture of isomers) [Example 1, N-{1-[4-trans-({4-[(isopropylsulfonyl)amino]tetrahydrofuran-3-yl}oxy)phenyl]pyrrolidin-3-yl}acetamide], the pEC50 was 5.48. On to `CCOc1ccccc1-c1ccc(O[C@@H]2COC[C@H]2NS(=O)(=O)C(C)C)cc1` (racemic) [Example 8, trans-N-{4-[(2′-ethoxybiphenyl-4-yl)oxy]tetrahydrofuran-3-yl}propane-2-sulfonamide.], for which the negative-log EC50 (pEC50) was 5.54.

`CC(C)S(=O)(=O)N[C@H]1COC[C@H]1Oc1ccc(-c2ccc(C#N)s2)nc1` (racemic) [Example 23, cis-N-[4-{[6-(5-cyano-2-thienyl)pyridin-3-yl]oxy}tetra hydrofuran-3-yl]propane-2-sulfonamide]: the negative logarithm of the EC50 (pEC50) was 5.59. To `CC(C)S(=O)(=O)N[C@H]1COC[C@H]1Oc1ccc(-c2ccc(N(C)C)nc2)cc1` (racemic) [Example 43, cis-N-[4-{4-[6-(dimethyl-amino)-pyridin-3-yl]phenoxy}-tetrahydrofuran-3-yl]propane-2-sulfonamide] belongs 5.35; to `CC(C)S(=O)(=O)N[C@H]1COC[C@H]1Oc1ccc(-c2ccccc2C(F)(F)F)cc1` (racemic) [Example 44, cis-N-[4-{[2′-(trifluoro-methyl)-biphenyl-4-yl]oxy}-tetrahydrofuran-3-yl]propane-2-sulfonamide], 5.57.

Consider `Cc1ccc(-c2ccc(O[C@@H]3COC[C@@H]3NS(=O)(=O)C(C)C)cc2)cc1` (racemic) [Example 45, cis-N-{4-[(4′-methylbiphenyl-4-yl)oxy]-tetrahydrofuran-3-yl}propane-2-sulfonamide], for which the pEC50 is 5.59. On to `CC(C)S(=O)(=O)N[C@H]1COC[C@H]1Oc1ccc(-c2cccc(C(F)(F)F)c2)cc1` (racemic) [Example 47, cis-N-[4-{[3′-(trifluoromethyl)biphenyl-4-yl]oxy}tetrahydrofuran-3-yl]propane-2-sulfonamide], for which the pEC50 is 5.42. To `CC(C)S(=O)(=O)N[C@H]1COC[C@H]1Oc1ccc(-c2ccncc2)cc1` (racemic) [Example 48, cis-N-[4-(4-pyridin-4-ylphenoxy)tetrahydrofuran-3-yl]propane-2-sulfonamide] belongs 6.20. To `CC(C)S(=O)(=O)N[C@H]1COC[C@H]1Oc1ccc(-c2cccc3ncccc23)cc1` (racemic) [Example 50, cis-N-[4-(4-quinolin-5-ylphenoxy)tetrahydrofuran-3-yl]propane-2-sulfonamide] belongs 6.34; to `CC(C)S(=O)(=O)N[C@H]1COC[C@H]1Oc1ccc(-c2cccc3cnccc23)cc1` (racemic) [Example 52, cis-N-[4-(4-isoquinolin-5-ylphenoxy)tetrahydrofuran-3-yl]propane-2-sulfonamide], 5.90. As for `CC(C)S(=O)(=O)N[C@@H]1COC[C@@H]1Oc1ccc(-c2ccc(C#N)cc2)cc1` (relative stereo) [Example 9, cis-N-{4-[(4′-cyanobiphenyl-4-yl)oxy]tetra hydrofuran-3-yl}propane-2-sulfonamide], the figure is 5.21; as for `CC(C)S(=O)(=O)N[C@@H]1COC[C@@H]1Oc1ccc(-c2cccnc2)cc1` (relative stereo) [Example 10, cis-N-[4-(4-pyridin-3-ylphenoxy)tetrahydrofuran-3-yl]propane-2-sulfonamide], 5.94. For `CC(C)S(=O)(=O)N[C@@H]1COC[C@@H]1Oc1ccc(-c2cccs2)cc1` (relative stereo) [Example 11, cis-N-{4-[4-(2-thienyl)phenoxy]tetrahydrofuran-3-yl}propane-2-sulfonamide], the pEC50 was 6.16. As for `CC(C)S(=O)(=O)N[C@@H]1COC[C@@H]1Oc1ccc(-c2ccc(F)nc2)cc1` (relative stereo) [Example 12, cis-N-{4-[4-(6-fluoropyridin-3-yl)phenoxy]tetrahydrofuran-3-yl}propane-2-sulfonamide], the figure is 5.96.

Regarding `COc1ccc(-c2ccc(O[C@H]3COC[C@H]3NS(=O)(=O)C(C)C)cc2)cn1` (relative stereo) [Example 13, cis-N-{4-[4-(6-methoxypyridin-3-yl)phenoxy]tetrahydrofuran-3-yl}propane-2-sulfonamide], the negative logarithm of the EC50 (pEC50) is 5.28.

For the molecule `CC(C)S(=O)(=O)N[C@@H]1COC[C@@H]1Oc1ccc(-c2ccoc2)cc1` (relative stereo) [Example 14, cis-N-{4-[4-(3-furyl)phenoxy]tetrahydrofuran-3-yl}propane-2-sulfonamide], the negative logarithm of the EC50 (pEC50) was 5.63.

In the case of `CC(C)S(=O)(=O)N[C@@H]1COC[C@@H]1Oc1ccc(-c2cccnc2F)cc1` (relative stereo) [Example 15, cis-N-{4-[4-(2-fluoropyridin-3-yl)phenoxy]tetrahydrofuran-3-yl}propane-2-sulfonamide], the pEC50 was 5.54. As for `CC(C)S(=O)(=O)N[C@@H]1COC[C@@H]1Oc1ccc(-c2ccsc2)cc1` (relative stereo) [Example 24, cis-N-{4-[4-(3-thienyl)phenoxy]tetrahydrofuran-3-yl}propane-2-sulfonamide], the figure is 6.28; as for `CC(C)S(=O)(=O)N[C@H]1COC[C@H]1Oc1ccc(-c2ccc(C(=O)N(C)C)cc2)cc1` (relative stereo) [Example 46, cis-4′-({4-[(isopropyl-sulfonyl)-amino]tetrahydrofuran-3-yl}oxy)-N,N-dimethyl-biphenyl-4-carboxamide], 5.17; as for `CC(C)S(=O)(=O)N[C@H]1COC[C@H]1Oc1ccc(-c2ccccc2C(N)=O)cc1` (relative stereo) [Example 49, cis-4′-({4-[(isopropylsulfonyl)amino]tetrahydrofuran-3-yl}oxy)biphenyl-2-carboxamide], 5.85. As for `CC(C)S(=O)(=O)N[C@H]1COC[C@H]1Oc1ccc(-c2ccccc2S(=O)(=O)NC(C)(C)C)cc1` (relative stereo) [Example 51, cis-N-tert-butyl-4′-({4-[(isopropylsulfonyl)amino]tetrahydrofuran-3-yl}oxy)biphenyl-2-sulfonamide], the figure is 5.68; as for `CC(C)S(=O)(=O)N[C@H]1COC[C@H]1Oc1ccc(-c2cccc(C(N)=O)c2)cc1` (relative stereo) [Example 53, cis-4′-({4-[(isopropylsulfonyl)amino]tetrahydrofuran-3-yl}oxy) biphenyl-3-carboxamide], 5.95; as for `CC(C)S(=O)(=O)N[C@H]1COC[C@H]1Oc1ccc(-c2ccc(F)cc2C#N)cc1` (single isomer, unassigned) [Example 16], greater than 8.00. As for `CC(C)S(=O)(=O)N[C@H]1COC[C@H]1Oc1ccc(-c2ccc(F)cc2)cc1` (single isomer, unassigned) [Example 17], the figure is 6.39; as for `CC(C)S(=O)(=O)N[C@H]1COC[C@H]1Oc1ccc(-c2ccccc2)cc1` [Example 2, N-[(3S,4S)-4-(biphenyl-4-yloxy)tetrahydrofuran-3-yl]propane-2-sulfonamide], 5.87.
